{
  "source": "patent US20120238559A1",
  "about": "“NOVEL COMPOUNDS” (GLAXO GROUP LIMITED, priority 2009, published 2012)",
  "origin": "cited, not measured here",
  "key": {"neutrophils [1]": {"tested_on": "neutrophils"}, "neutrophils [2]": {"tested_on": "neutrophils", "conditions": "treatment of neutrophils; Thelen et al. 1994"}, "Class I PI3-kinases": {"tested_on": "Class I PI3-kinases", "conditions": "each of the four Class I PI3-kinases; read-out: IC50 against each of the various Class I PI3-kinases"}},
  "data": [
    {"smiles": "O=c1cc(N2CCOCC2)oc2c(-c3ccccc3)cccc12", "note": "[LY294002]", "values": [
      {"measurement": "neutrophil migration and superoxide release", "setting": "neutrophils [1]", "result": "block neutrophil migration and superoxide release"}
    ]},
    {"smiles": "COC[C@H]1OC(=O)c2coc3c2[C@@]1(C)C1=C(C3=O)[C@@H]2CCC(=O)[C@@]2(C)C[C@H]1OC(C)=O", "note": "[wortmannin]", "values": [
      {"measurement": "fMLP-induced respiratory burst response", "setting": "neutrophils [2]", "result": "prevents the fMLP-induced respiratory burst response"},
      {"measurement": "neutrophil migration and superoxide release", "setting": "neutrophils [1]", "result": "block neutrophil migration and superoxide release"},
      {"measurement": "IC50", "setting": "Class I PI3-kinases", "result": "1 to 10", "unit": "nM"}
    ]}
  ]
}
